PubChem BioAssay (NCI)
Several values for one entry are separate records, joined by “and”; a condition that tells them apart may be missing. Equal entries are not always repeated.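 Five compound concentrations were applied to cells in 96-well plates for 48 hours; endpoints were derived by simple linear interpolation of the resulting dose-response curve. GI50 = concentration required for 50% inhibition of growth. Definition used: TGI = concentration required for complete inhibition of growth.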

Key:
Test in all cases: NCI-60 cell line screen, 48 h
ACHN renal = system: ACHN renal
KM12 colon = system: KM12 colon
OVCAR-3 ovarian = system: OVCAR-3 ovarian
PC-3 prostate = system: PC-3 prostate
SF-268 CNS = system: SF-268 CNS
SK-MEL-2 melanoma = system: SK-MEL-2 melanoma
SNB-19 CNS = system: SNB-19 CNS
SR leukemia = system: SR leukemia
HT29 colon = system: HT29 colon
MOLT-4 leukemia = system: MOLT-4 leukemia

SMILES	GI50 (ACHN renal)	TGI (ACHN renal)	GI50 (KM12 colon)	TGI (KM12 colon)	GI50 (OVCAR-3 ovarian)	TGI (OVCAR-3 ovarian)	GI50 (PC-3 prostate)	TGI (PC-3 prostate)	GI50 (SF-268 CNS)	TGI (SF-268 CNS)	GI50 (SK-MEL-2 melanoma)	TGI (SK-MEL-2 melanoma)	GI50 (SNB-19 CNS)	TGI (SNB-19 CNS)	GI50 (SR leukemia)	TGI (SR leukemia)	GI50 (HT29 colon)	TGI (HT29 colon)	GI50 (MOLT-4 leukemia)	TGI (MOLT-4 leukemia)
N#CC1=C(N)NC(=S)NC1c1ccc(-c2ccc(-c3nc4ccccc4s3)cc2)o1 (stereo not given)	28.1 µM	> 50 µM	17 µM	> 50 µM	> 50 µM	> 50 µM	31.2 µM	> 50 µM	28.9 µM	> 50 µM	41 µM	> 50 µM	> 50 µM	> 50 µM	11.3 µM	25.7 µM				
O=c1cc(N2CCOCC2)oc2c(-c3ccccc3)cccc12	4.25 µM	> 100 µM	10.6 µM	44.9 µM and 28.8 µM	4.48 µM	40.3 µM and 43 µM	2.96 µM	> 100 µM	3.59 µM	53 µM and 14.2 µM	12.1 µM	38 µM and 36.9 µM		> 96.2 µM and 78.6 µM		> 60 µM and 46.6 µM	5.27 µM	70.6 µM and 43.8 µM	5.46 µM	> 100 µM and 92.8 µM
Cc1cc(C)c2nc(Nc3nc(C)c(C)c(=O)[nH]3)nc(C)c2c1	3.06 µM	11.6 µM	3.02 µM	23.9 µM	3.59 µM	13.1 µM	2.96 µM	15.1 µM	2.82 µM	13.8 µM	2.27 µM	7.09 µM	3.19 µM	14.3 µM	2.18 µM	7.43 µM	2.25 µM	6.04 µM	2.35 µM	9.37 µM
CC(C)=CCNc1ncnc2c1ncn2C1OC(COP(=O)(O)O)C(O)C1O (stereo not given)	3.08 µM	> 100 µM	20.1 µM	> 100 µM	2.13 µM	4.41 µM	2 µM	8.22 µM	8.77 µM	> 100 µM	16.3 µM	99.8 µM	26.3 µM	> 100 µM			3.74 µM	42.5 µM	4.22 µM	> 48.5 µM
N#CC1=C(N)Oc2c(sc3c(F)cccc23)C1c1ccc(Cl)cc1 (stereo not given)	4.62 µM	19.3 µM	2.75 µM	18.9 µM	2.6 µM	7.44 µM	2.72 µM	12.9 µM	4.32 µM	31.2 µM	3.49 µM	15.5 µM	3.32 µM	16.3 µM	1.6 µM	13.4 µM	3.17 µM	11.5 µM	2.93 µM	10.5 µM
O=C1C=Cc2cc3ccccc3c3cccc1c23	2.06 µM	7.39 µM	12.1 µM	35.6 µM	3.9 µM	19 µM	3.47 µM	19.1 µM	4.55 µM	27 µM	27.6 µM	> 100 µM	8.51 µM	> 100 µM			7.29 µM	> 100 µM	5.03 µM	> 100 µM
N=C(N)c1ccc(-c2ccc(-c3ccco3)o2)cc1	4.24 µM	15.3 µM	3.16 µM	10.4 µM	9.77 µM	22.1 µM	4.05 µM	17 µM	4.85 µM	18.7 µM	2.41 µM	4.65 µM	9.44 µM	23.2 µM	3.17 µM	10.7 µM	2.78 µM	8.47 µM	3.26 µM	10.8 µM
COc1cc(C2CC(c3ccc(C)cc3)=NN2C(C)=O)ccc1Oc1ccnc2cc(Cl)ccc12 (stereo not given)	2.76 µM	> 100 µM	> 100 µM	> 100 µM	> 100 µM	> 100 µM	> 100 µM	> 100 µM	38.4 µM	> 100 µM	15.8 µM	43.2 µM	37.4 µM	> 100 µM	> 100 µM	> 100 µM	> 100 µM	> 100 µM	> 100 µM	> 100 µM
CCSc1sc(-c2ccc(C)cc2)nc1[P+](c1ccccc1)(c1ccccc1)c1ccccc1	0.285 µM	1.01 µM	0.281 µM	1.16 µM	0.3 µM	1.18 µM	0.231 µM	1.14 µM	0.328 µM	1.43 µM	0.273 µM	0.805 µM	0.332 µM	1.39 µM	0.354 µM	3.47 µM			0.391 µM	1.87 µM
COc1cc2c(cc1OC)[C@@H]1[C@H](C2=O)c2ccc([N+](=O)[O-])cc2C(=O)N1CCCBr			0.406 µM	4.6 µM		0.748 µM	1.19 µM	> 70.4 µM		> 39.4 µM	4.62 µM	> 100 µM	0.474 µM	> 100 µM	< 0.01 µM	0.311 µM	0.35 µM		< 0.018 µM	
COc1ccc(C2CC(c3cccc(Nc4ccnc5cc(Cl)ccc45)c3)=NN2c2ccccc2)cc1 (stereo not given)	3.5 µM	33.2 µM	0.226 µM	19.6 µM	3.2 µM	> 100 µM	0.453 µM	95.3 µM	4.19 µM	> 100 µM	2.07 µM	10.4 µM	6.9 µM	> 100 µM	1.17 µM	8.52 µM			0.432 µM	27.6 µM
O=C1CCc2cc([N+](=O)[O-])ccc2O1		> 100 µM				> 100 µM		> 100 µM		> 100 µM		> 100 µM		> 100 µM		> 100 µM		> 100 µM		> 100 µM
COc1ccc(-n2cc(-c3ccc(Cl)cc3)[nH]c2=S)cc1Cl	33.1 µM	> 100 µM	> 100 µM	> 100 µM	31.8 µM	> 100 µM	30.7 µM	> 100 µM	28 µM	76.5 µM	82.1 µM	> 100 µM	20.1 µM	55 µM			74.2 µM	> 100 µM	43 µM	> 100 µM
OCCOCn1nc(-c2ccccc2)nc1-c1cnccn1				> 100 µM		> 100 µM		> 100 µM		> 100 µM				> 100 µM		> 100 µM		> 100 µM		> 100 µM
